How the values were obtained:
[1] = MTT assay, cytotoxicity in human skin cancer cell line; type: cell-based; details: human, Cell viability
Summary of the method: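 A431 cells were seeded in serum-free medium and, about 3 h later, treated 24 h with phytosphingosine derivatives at final 1–100 μM (DMSO vehicle). MTT (2 mg/ml) was then added for 4 h, and the formazan was dissolved in DMSO and read at 540 nm for viability. C2-ceramide served as comparator.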

HaCaT cells = assay: Mitosis by immunofluorescence (β-tubulin, DAPI); type: cell-based, human; details: 30 μM, 24 hours versus 12 hours, FIG. 9
Protocol: Next, the cell cycle is observed according to the immunofluorescence method. In order to look into from which step among G2/M phase the induction of apoptosis by TAPS is induced, mitosis is observed by using β-tubulin. HaCaT cells are cultured on a dish with a cover slip and treated with TAPS (30 μM). The cells are washed with PBS at each time interval, fixed with 5% paraformaldehyde for 15 minutes, and reacted with β-tubulin antibody (1:100) for 1 hour. They were washed with PBS and reacted with Cy3-conjugated anti-mouse IgG secondarily. For DNA staining, 0.3 μg/ml of DAPI (Sigma) is added to the cells, which are observed by using a fluorescent microscope.

[2] = system: peripheral blood mononuclear cells (PBMC); assay: MTT assay, cytotoxicity in peripheral blood mononuclear cells; type: cell-based, human; details: FIG. 3
Protocol: The effects of the composition of the present invention on the cytotoxicity in immune cells (T cells, B cells, macrophages, monocytes, etc.) obtained from human blood were examined. The blood was obtained from healthy volunteers and PBMC from the blood by mechanical aggregation method. And mononuclear cells containing T cells, B cells, macrophages and monocytes were isolated from single cells by density gradient centrifugation method using Ficoll Hypaque. Briefly, single cells were treated with PBS and overlayed on Ficoll Hypaque and centrifuged at 1500 rpm for 30 min. After centrifugation, the cells around the boundary of the Ficoll-Hapaque were collected and washed three times with PBS. […] And RPMI with 10% of serum was used as a medium. The isolated cells were cultured for 24 hours in the presence of 1, 10, 50 and 100 μM of NAPS, TAPS, and PS to examine the effect of cytotoxicity, i.e. the degree of proliferation of the cells. C2-ceramide was used as control.

Chk1 = assay: Immunoblot analysis of Chk1; type: cell-based, human; details: 30 μM, FIGS. 12 and 13
Protocol: (§1) In the confirmation of apoptosis-related proteins, the immunoblot analysis is performed in order to look into the effects of the compositions of the present invention on the expression of caspase-3, p53, and Chk1 proteins related to the induction of apoptosis. HaCaT cells are cultured on a 100-mm dish and collected at the indicative time. The proteins are extracted by adding 500 μl of RIPA lysis buffer (1% Nonidet P-40, 1% sodium deoxycholate, 0.1% SDS, […], 0.01 M sodium phosphate, pH 7.2, 2 mM EDTA, 50 mM sodium fluoride and 0.2 mM sodium vanadate), and the concentration is measured by using the Bradford method. 1 Extracted proteins is electrophoresed on 12% polyacrylamide gel, and they are transferred to the nitrocellulose membrane. The membrane blocked with 5% non-fat milk is reacted with the primary antibodies (caspase-3, p53, and Chk1), washed, and reacted with the secondary HRP-conjugated antibody. The intensity of proteins is analyzed by using the ECL kit.

apoptosis-related genes = assay: Apoptosis array kit, gene expression; type: cell-based; details: 30 μM, 24 hours, FIG. 10
Protocol: Firstly, in order to look into the genes involved in apoptosis induced by the compositions of the present invention, TAPS is treated at the dose of 30 μM for 24 hours, from which mRNA is isolated. Then it is observed by using an apoptosis array kit.
The labeled cDNA is synthesized by using apoptosis-specific primers offered by Human Apoptosis Expression Assay (R&D System, Minneapolis, Minn.), which is used for a probe in incubation with 2 μg of the total RNA at 65° C. overnight. It is then washed with Washing Solution I (0.5×SSPE, 1% (w/v) SDA) three times at a room temperature and with Washing Solution II ([…]) for 1 hour at 65° C. The washed membranes are exposed to X-ray films at […], and developed.

p53 = assay: Immunoblot analysis of p53; type: cell-based, human; details: 30 μM, FIG. 12
Protocol: as §1

Compound	viability at 24 h, 3 µM [1]	viability at 24 h, 10 µM [1]	viability at 24 h, 30 µM [1]	viability at 24 h, 50 µM [1]	cells with chromosomes condensed (HaCaT cells)	concentration that shows the strong cytotoxicity ([2]; human PBMC)	cytotoxicity to PBMC ([2]; up to 100 μM, 24 hours)	Chk1 protein (Chk1; at 8-hour)	Chk1 protein (Chk1; at 24 hour)	expression of Bcl-10 (apoptosis-related genes)	expression of COX-2 gene (apoptosis-related genes)	expression of IL-1β (apoptosis-related genes)	expression of Mcl-1 (apoptosis-related genes)	expression of PIN gene (apoptosis-related genes)	expression of p21 (apoptosis-related genes)	expression of p53 gene (apoptosis-related genes)	expression of survivin (apoptosis-related genes)	p53 protein (p53; at 8-hour)	p53 protein (p53; at 24 hour)
CCCCCCCCCCCCCC[C@@H](O)[C@@H](O)[C@H](CO)NC(C)=O [NAPS, N-acetyl phytosphingosine]	100 ± 10.2%	75 ± 6.9%	31 ± 10%	1 ± 0.2%															
tetraacetyl phytosphingosine [TAPS]					more cells with chromosomes condensed are observed 24 hours after treating with TAPS than 12 hours after	50 µM	strong cytotoxicity	not changed greatly	rapid reduction	increased	increased	increased	increased	increased	increased	decreased	reduced	not changed greatly	rapid reduction
